Measured values from PubChem BioAssay (NCI).
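Grown in 96-well plates, cells were treated for 48 hours with each compound at five concentrations. Insufficient inhibition: endpoint recorded as highest concentration tested. GI50 = concentration required for 50% inhibition of growth. TGI denotes the concentration required for complete inhibition of growth.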

Tests used:
Assay in all cases: NCI anticancer screen, dose series, 48 h
[1] = system: SF-539 CNS
[2] = system: OVCAR-5 ovarian
[3] = system: A498 renal
[4] = system: 786-0 renal
[5] = system: SK-MEL-2 melanoma
[6] = system: SNB-75 CNS
[7] = system: OVCAR-3 ovarian
[8] = system: HCT-116 colon
[9] = system: NCI-H23 lung
[10] = system: MDA-MB-435

Compound	TGI [1] [µM]	TGI [2] [µM]	TGI [3] [µM]	TGI [4] [µM]	TGI [5] [µM]	TGI [6] [µM]	TGI [7] [µM]	TGI [8] [µM]	TGI [9] [µM]	TGI [10] [µM]	GI50 [1] [µM]	GI50 [2] [µM]	GI50 [3] [µM]	GI50 [4] [µM]	GI50 [5] [µM]	GI50 [6] [µM]	GI50 [7] [µM]	GI50 [8] [µM]	GI50 [9] [µM]	GI50 [10] [µM]
Cc1c2c(C(N)=O)nccc2c(C)c2c1c1ccccc1n2Cc1ccccc1	37.7	> 100	46	15.9	43.3	39.9	21.1	29	78.8	> 100										
c1ccc2c(c1)c1ccccc1c1ccccc21	> 100	> 100	> 100	> 100	> 100	> 100	> 100	> 100	> 100	> 100	> 100	> 100	> 100	> 100	> 100	> 100	> 100	> 100	> 100	> 100
CC1=NC(C)(COC(=O)C2(C)NC(C)(CO)CO2)COC1=O (centres undefined)	> 100	> 100	> 100	> 100	> 100	> 100	> 100	> 100	> 100	> 100										
O=C(NNc1cnccn1)c1nc2cc(F)ccc2n2cccc12	> 31.6	> 100	2.67	> 100	> 100	> 30.4	> 100	> 100	> 100	> 100	0.847	0.828	0.575	0.572	1.61	1.31	0.311	0.46	0.765	0.873
O=[N+]([O-])c1ccc(Sc2c3ccccc3nc3ccccc23)cn1	> 20.5	> 100	> 100	8.48	48.1	> 63.4	20.3	11.9	> 47.8	33.2										
Oc1ccc(Oc2cnc3ccccc3n2)cc1	> 100	> 100	> 100	> 100	> 100	> 100	> 100	> 100	> 100	> 100	77.2	> 100	37.2	> 100	> 100	60	> 100	> 100	> 100	> 100
COc1cc2c3c(n(CCCN(C)CCO)c(=O)c2cc1OC)-c1cc2c(cc1C3=O)OCO2	> 33.5	> 100	> 40.2	> 100	> 100	> 58.5	> 100	30.7	> 24.6	> 100	2.89	51.7	8.19	2.92	> 100		35.9	1.9	0.839	16.6
COc1ccc(-c2cc(Nc3ccnc(N4CCOCC4)n3)on2)cc1	1.16	20.8	2.41	8.4	29.5	0.576	2.66	13	29.1	0.121	0.264	0.684	0.343	0.376	0.457	0.1	0.0728	0.081	0.516	0.0307
CC(=O)NC1CONC1=O (centres undefined)	> 100	> 100	> 100	> 100	> 100	> 100	> 100	> 100	> 100	> 100										
